Experimental data as given in publication PMC3188330 (2011).

How the values were obtained:
UGT1A10 [1] = target: T1, UGT1A10 (Homo sapiens, UniProt Q9HAW8); assay: glucuronidation rate at […]; format: cell-based
T1 sequence (Q9HAW8 26-530): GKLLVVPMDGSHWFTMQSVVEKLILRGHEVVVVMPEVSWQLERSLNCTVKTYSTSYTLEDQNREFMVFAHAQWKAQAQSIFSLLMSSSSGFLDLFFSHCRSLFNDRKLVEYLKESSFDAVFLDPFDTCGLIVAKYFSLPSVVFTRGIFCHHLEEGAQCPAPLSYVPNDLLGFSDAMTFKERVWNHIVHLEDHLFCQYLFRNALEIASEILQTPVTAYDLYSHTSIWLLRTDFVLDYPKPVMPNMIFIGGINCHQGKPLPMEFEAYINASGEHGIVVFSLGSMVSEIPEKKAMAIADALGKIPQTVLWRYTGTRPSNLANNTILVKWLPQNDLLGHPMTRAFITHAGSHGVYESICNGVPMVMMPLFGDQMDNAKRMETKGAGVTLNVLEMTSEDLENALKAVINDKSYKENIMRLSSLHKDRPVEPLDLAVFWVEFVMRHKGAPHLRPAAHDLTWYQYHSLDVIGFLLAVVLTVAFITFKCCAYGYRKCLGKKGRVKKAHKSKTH

UGT1A10 [2] = target: T1, UGT1A10; assay: glucuronidation rate at […]; format: cell-based; remark: listed apart in the source

Row | SMILES | glucuronidation rate at 100 μM (HPLC) (UGT1A10 [1]) | glucuronidation rate at 500 μM (HPLC) (UGT1A10 [2])
1 | Oc1cccc2ccccc12 [1-naphthol] | F93L catalyzed 1-naphthol glucuronidation at about twice the rate of the control UGT1A10 | –
2 | COc1cc2ccc(=O)oc2cc1O [scopoletin] | – | majority of the mutants were higher than control, up to six fold the (normalized) rate of UGT1A10
